Compound | melting point [°C]
CC(O)c1cccc2c1ccn2-c1ccnc(N[C@H]2CC[C@H](NS(=O)(=O)N(C)C)CC2)n1 (stereo partly drawn) [Compound 137, N-(N′,N′-dimethylsulfonamido) N-{4-[4-(1-hydroxyethyl)-indol-1-yl-pyrimidin-2-yl-amino]-cyclohexyl} amine] | > 300
CS(=O)(=O)CCOCc1cccc2c1ccn2-c1ccnc(N[C@H]2CC[C@H](O)CC2)n1 [Compound 138, 4-{4-[4-(2-methane-sulfonyl-ethoxymethyl)-indol-1-yl]-pyrimidin-2-ylamino}-cyclohexanol] | 119.5 to 121
CC(=O)N[C@H]1CC[C@H](Nc2nccc(-n3ccc4c(COCCS(C)(=O)=O)cccc43)n2)CC1 [Compound 139, N-(4-{4-[4-(2-methane-sulfonyl-ethoxymethyl)-indol-1-yl]-pyrimidin-2-ylamino}-cyclohexyl)-acetamide] | 208.5 to 209.7
COCCOCc1cccc2c1ccn2-c1ccnc(N[C@H]2CC[C@H](NC(C)=O)CC2)n1 [Compound 140, N-(4-{4-[4-(2-methoxy-ethoxymethyl)-indol-1-yl]-pyrimidin-2-ylamino}-cyclohexyl)-acetamide] | 177 to 177.8
CS(=O)(=O)N[C@H]1CC[C@H](Nc2nccc(-n3ncc4c(OCCO)cccc43)n2)CC1 [Compound 141, N-(4-{4-[4-(2-hydroxy-ethoxy)-indazol-1-yl]-pyrimidin-2-ylamino}-cyclohexyl)-methane-sulfonamide] | 268.1 to 269.1
CCCOc1cccc2c1cnn2-c1ccnc(N[C@H]2CC[C@H](NS(C)(=O)=O)CC2)n1 [Compound 142, N-{4-[4-(4-propoxy-indazol-1-yl)-pyrimidin-2-ylamino]-cyclohexyl}-methanesulfonamide] | 253 to 254
O=C([C@H]1CC[C@H](Nc2nccc(-n3ncc4c(OCCCO)cccc43)n2)CC1)N1CCCC1 [Compound 144, (4-{4-[4-(3-hydroxy-propoxy)-indazol-1-yl]-pyrimidin-2-ylamino}-cyclohexyl)-pyrrolidin-1-ylmethanone] | 187.5 to 188.5
CN(C)S(=O)(=O)N[C@H]1CC[C@H](Nc2nccc(-n3ncc4c(OCCCO)cccc43)n2)CC1 [Compound 145, N-(N′,N′-dimethylsulfonamido) N-(4-{4-[4-(3-hydroxy-propoxy)-indazol-1-yl]-pyrimidin-2-ylamino}-cyclohexyl) amine] | 248 to 250
CN(C)C(=O)[C@H]1CC[C@H](Nc2nccc(-n3ncc4c(OCc5ccccn5)cccc43)n2)CC1 [Compound 150, 4-{4-[4-(pyridine-2-yl-methoxy)-indazol-1-yl]-pyrimidin-2-ylamino}-cyclohexanecarboxylic acid dimethylamide] | 217.3 to 219
O=C([C@H]1CC[C@H](Nc2nccc(-n3ncc4c(OCCO)cccc43)n2)CC1)N1CCCC1 [Compound 151, (4-{4-[4-(2-hydroxy-ethoxy)-indazol-1-yl]-pyrimidin-2-ylamino}-cyclohexyl)-pyrrolidin-1-ylmethanone] | 164 to 166
CC(=O)N[C@H]1CC[C@H](Nc2nccc(-n3ncc4c(OCCCO)cccc43)n2)CC1 [Compound 152, N-(4-{4-[4-(3-hydroxy-propoxy)-indazol-1-yl]-pyrimidin-2ylamino}-cyclohexyl)-acetamide] | 226 to 228
CS(=O)(=O)CCCOc1cccc2c1cnn2-c1ccnc(N[C@H]2CC[C@H](C(=O)N3CCCC3)CC2)n1 [Compound 155, (4-{4-[4-(3-methane-sulfonyl-propoxy)-indazol-1-yl]-pyrimidin-2-ylamino}-cyclohexyl)-pyrrolidin-1-ylmethanone] | 183.4 to 184.5
CS(=O)(=O)CCCOc1cccc2c1cnn2-c1ccnc(N[C@H]2CC[C@H](NS(C)(=O)=O)CC2)n1 [Compound 156, N-(4-{4-[4-(3-methane-sulfonyl-propoxy)-indazol-1-yl]-pyrimidin-2-ylamino}-cyclohexyl)-methanesulfonamide] | 247 to 248
CN([C@H]1CC[C@H](Nc2nccc(-n3ncc4c(OCCCS(C)(=O)=O)cccc43)n2)CC1)S(C)(=O)=O [Compound 158, N-(4-{4-[4-(3-methane-sulfonyl-propoxy)-indazol-1-yl]-pyrimidin-2-ylamino}-cyclohexyl)-N-methyl-methane-sulfonamide] | 208.8 to 209.6
COCCOCc1cccc2c1ccn2-c1ccnc(N[C@H]2CC[C@H](N(C)S(C)(=O)=O)CC2)n1 [Compound 160, N-(4-{4-[4-(2-methoxy-ethoxymethyl)-indol-1-yl]-pyrimidin-2-ylamino}-cyclohexyl)-N-methyl-methane-sulfonamide] | 154 to 156.5
CN([C@H]1CC[C@H](Nc2nccc(-n3ccc4c(C(C)(C)O)cccc43)n2)CC1)S(C)(=O)=O [Compound 161, N-(4-{4-[4-(1-hydroxy-1-methyl-ethyl)-indol-1-yl]-pyrimidin-2-yl-amino}-cyclohexyl)-N-methyl-methane-sulfonamide] | 149 to 150
CN([C@H]1CC[C@H](Nc2nccc(-n3ccc4c(CC#N)cccc43)n2)CC1)S(C)(=O)=O [Compound 163, N-{4-[4-(4-cyano-methyl-indol-1-yl)-pyrimidin-2-ylamino]-cyclohexyl}-N-methyl-methanesulfonamide] | 187.8 to 189

Compound | melting point [°C]
CN(c1cccc2c1ccn2-c1ccnc(N[C@H]2CC[C@H](C(C)(C)O)CC2)n1)S(C)(=O)=O [Compound 164, N-(1-{2-[4-(1-hydroxy-1-methyl-ethyl)-cyclo-hexylamino]-pyrimidin-4-yl}-1H-indol-4-yl)-N-methyl-methanesulfonamide] | 216.5 to 217.5
CC(C)Oc1cccc2c1cnn2-c1ccnc(N[C@H]2CC[C@H](O)CC2)n1 [Compound 167, 4-[4-(4-isopropoxy-indazol-1-yl)-pyrimidin-2-ylamino]-cyclohexanol] | 188.2 to 189.2
CCCCOc1cccc2c1cnn2-c1ccnc(N[C@H]2CC[C@H](O)CC2)n1 [Compound 168, 4-[4-(4-butoxy-indazol-1-yl)-pyrimidin-2-yl-amino]-cyclohexanol] | 195 to 196
CC(C)COc1cccc2c1cnn2-c1ccnc(N[C@H]2CC[C@H](O)CC2)n1 [Compound 169, 4-[4-(4-isobutoxy-indazol-1-yl)-pyrimidin-2-ylamino]-cyclohexanol] | 189.3 to 190.3
COC(=O)N[C@H]1CC[C@H](Nc2nccc(-n3ncc4c(OCCCS(C)(=O)=O)cccc43)n2)CC1 [Compound 170, (4-{4-[4-(3-methane-sulfonyl-propoxy)-indazol-1-yl]-pyrimidin-2-ylamino}-cyclohexyl)-carbamic acid methyl ester] | 226.8 to 227.3
CN([C@H]1CC[C@H](Nc2nccc(-n3ccc4c(C(C)(C)C#N)cccc43)n2)CC1)S(C)(=O)=O [Compound 173, N-(4-{4-[4-(2-cyano-prop-2-yl)-indol-1-yl]-pyrimidin-2-ylamino}-cyclohexyl)-N-methyl-methanesulfonamide] | 189 to 190
CC(C#N)c1cccc2c1ccn2-c1ccnc(N[C@H]2CC[C@H](N(C)S(C)(=O)=O)CC2)n1 (stereo partly drawn) [Compound 174, N-(4-{4-[4-(1-cyano-ethyl)-indol-1-yl]-pyrimidin-2-ylamino}-cyclohexyl)-N-methyl-methanesulfonamide] | 196 to 197
CC(=O)N[C@H]1CC[C@H](Nc2nccc(-n3ccc4c(C(C)C#N)cccc43)n2)CC1 (stereo partly drawn) [Compound 175, N-(4-{4-[4-(1-cyano-ethyl)-indol-1-yl]-pyrimidin-2-ylamino}-cyclohexyl)-acetamide] | 244 to 245
CC(=O)N[C@H]1CC[C@H](Nc2nccc(-n3ccc4c(C(C)(C)C#N)cccc43)n2)CC1 [Compound 176, N-(4-{4-[4-(2-cyano-prop-2-yl)-indol-1-yl]-pyrimidin-2-ylamino}-cyclohexyl)-acetamide] | 238 to 239
CN([C@H]1CC[C@H](Nc2nccc(-n3ncc4c(OCCCO)cccc43)n2)CC1)S(C)(=O)=O [Compound 178, N-(4-{4-[4-(3-hydroxy-propoxy)indazole-1-yl]-pyrmidin-2-ylamino}-cyclohexyl)-N-methyl-methanesulfonamide] | 208.4 to 209
CC(C)(O)c1cccc2c1ccn2-c1ccnc(N[C@H]2CC[C@H](N3CCCS3(=O)=O)CC2)n1 [Compound 179, 2-(1-{2-[4-(1,1-dioxo-isothiazolidin-2yl)-cyclohexylamino}-pyrimidin-4-yl}-1H-indol-4-yl)-propan-2-ol] | 206.9 to 207.6
CC(C)(C)OC(=O)N[C@H]1CC[C@H](Nc2nccc(-n3ccc4c(OCCCS(C)(=O)=O)cccc43)n2)CC1 [Compound 181, (4-{4-[4-(3-methane-sulfonyl-propoxy)-indol-1-yl]-pyrimidin-2-ylamino}-cyclohexyl)-carbamic acid t-butyl ester] | 227.5 to 228.5
CN(C)S(=O)(=O)N[C@H]1CC[C@H](Nc2nccc(-n3ccc4c(C5(O)CCOCC5)cccc43)n2)CC1 [Compound 182, N-(4-{4-[4-(4-hydroxy-tetrahydropyran-4-yl)-indol-1-yl]-pyrimidin-2-ylamino}-cyclohexyl)-(N′,N′-dimethylamino)-sulfonamide] | > 300
CC(C)(O)[C@H]1CC[C@H](Nc2nccc(-n3ncc4c(OCCCO)cccc43)n2)CC1 [Compound 183, 3-(1-{2-[4-(2-hydroxy-prop-2-yl)-cyclohexyl-amino]-pyrimidin-4-yl}-1H-indazol-4-yloxy)-propan-1-ol] | 229.5 to 231
CS(=O)(=O)CCCOc1cccc2c1cnn2-c1ccnc(N[C@H]2CC[C@H](C(=O)N3CCC(O)CC3)CC2)n1 [Compound 184, (4-hydroxy-piperidin-1-yl)-(4-{4-[4-(3-methane-sulfonyl-propoxy)-indazol-1-yl]-pyrimidin-2-ylamino}-cyclohexyl)-methanone] | 143 to 145
CN([C@H]1CC[C@H](Nc2nccc(-n3ccc4c(CNS(C)(=O)=O)cccc43)n2)CC1)S(C)(=O)=O [Compound 188, N-(4-{4-[4-(methane-sulfonylamino-methyl)-indol-1-yl]-pyrimidin-2-ylamino}-cyclohexyl)-N-methyl-methane-sulfonamide] | 226.5 to 228

Reference: US8399462B2, “JNK modulators” (Roche Palo Alto LLC, priority 2006, dated 2013)
